Reference: the kinase profiling compilation of Christmann-Franck et al. (2016)
Blank lines part the entries; values can stand above or below the molecule they belong to.

Key:
[1] = molecular target: ALK (human) (UniProt Q9UM73); test: KINOMEscan competition binding; conditions: compound 10.0 µM
[2] = molecular target: AURKC (human) (UniProt Q9UQB9); test: KINOMEscan competition binding; conditions: compound 10.0 µM
[3] = molecular target: AXL (human) (UniProt P30530); test: KINOMEscan competition binding; conditions: compound 10.0 µM
[4] = molecular target: CDK16 (human) (UniProt Q00536); test: KINOMEscan competition binding; conditions: compound 10.0 µM
[5] = molecular target: CSNK2A1 (human) (UniProt P68400); test: KINOMEscan competition binding; conditions: compound 10.0 µM
[6] = molecular target: CSNK2A2 (human) (UniProt P19784); test: KINOMEscan competition binding; conditions: compound 10.0 µM
[7] = molecular target: DAPK2 (human) (UniProt Q9UIK4); test: KINOMEscan competition binding; conditions: compound 10.0 µM
[8] = molecular target: DAPK3 (human) (UniProt O43293); test: KINOMEscan competition binding; conditions: compound 10.0 µM
[9] = tested on: FLT3 (human), P36888 [D835H]; test: KINOMEscan competition binding; conditions: compound 10.0 µM
[10] = molecular target: FLT4 (human) (UniProt P35916); test: KINOMEscan competition binding; conditions: compound 10.0 µM
[11] = molecular target: GAK (human) (UniProt O14976); test: KINOMEscan competition binding; conditions: compound 10.0 µM
[12] = molecular target: HIPK1 (human) (UniProt Q86Z02); test: KINOMEscan competition binding; conditions: compound 10.0 µM
[13] = molecular target: MAPK10 (human) (UniProt P53779); test: KINOMEscan competition binding; conditions: compound 10.0 µM
[14] = molecular target: MAPK14 (human) (UniProt Q16539); test: KINOMEscan competition binding; conditions: compound 10.0 µM
[15] = molecular target: MAPK8 (human) (UniProt P45983); test: KINOMEscan competition binding; conditions: compound 10.0 µM
[16] = molecular target: MAPK9 (human) (UniProt P45984); test: KINOMEscan competition binding; conditions: compound 10.0 µM
[17] = molecular target: MERTK (human) (UniProt Q12866); test: KINOMEscan competition binding; conditions: compound 10.0 µM
[18] = molecular target: NEK6 (human) (UniProt Q9HC98); test: KINOMEscan competition binding; conditions: compound 10.0 µM
[19] = molecular target: NEK7 (human) (UniProt Q8TDX7); test: KINOMEscan competition binding; conditions: compound 10.0 µM
[20] = molecular target: PIM1 (human) (UniProt P11309); test: KINOMEscan competition binding; conditions: compound 10.0 µM
[21] = molecular target: PIM2 (human) (UniProt Q9P1W9); test: KINOMEscan competition binding; conditions: compound 10.0 µM
[22] = molecular target: PIM3 (human) (UniProt Q86V86); test: KINOMEscan competition binding; conditions: compound 10.0 µM
[23] = molecular target: PLK4 (human) (UniProt O00444); test: KINOMEscan competition binding; conditions: compound 10.0 µM
[24] = molecular target: RIOK3 (human) (UniProt O14730); test: KINOMEscan competition binding; conditions: compound 10.0 µM
[25] = molecular target: SRPK1 (human) (UniProt Q96SB4); test: KINOMEscan competition binding; conditions: compound 10.0 µM
[26] = molecular target: SRPK3 (human) (UniProt Q9UPE1); test: KINOMEscan competition binding; conditions: compound 10.0 µM
[27] = molecular target: STK17A (human) (UniProt Q9UEE5); test: KINOMEscan competition binding; conditions: compound 10.0 µM
[28] = molecular target: STK17B (human) (UniProt O94768); test: KINOMEscan competition binding; conditions: compound 10.0 µM
[29] = molecular target: STK3 (human) (UniProt Q13188); test: KINOMEscan competition binding; conditions: compound 10.0 µM
[30] = molecular target: TGFBR2 (human) (UniProt P37173); test: KINOMEscan competition binding; conditions: compound 10.0 µM
[31] = molecular target: TYK2 JH2 pseudokinase (human) (UniProt P29597); test: KINOMEscan competition binding; conditions: compound 10.0 µM
[32] = molecular target: PIM1 (human) (UniProt P11309); test: SelectScreen, TR FRET
[33] = molecular target: PIM2 (human) (UniProt Q9P1W9); test: SelectScreen, TR FRET
[34] = tested on: ABL1 (human), P00519 [F317I]; test: KINOMEscan competition binding; conditions: compound 10.0 µM
[35] = tested on: ABL1 (human), P00519 [F317L]; test: KINOMEscan competition binding; conditions: compound 10.0 µM
[36] = molecular target: BLK (human) (UniProt P51451); test: KINOMEscan competition binding; conditions: compound 10.0 µM
[37] = molecular target: BMP2K (human) (UniProt Q9NSY1); test: KINOMEscan competition binding; conditions: compound 10.0 µM
[38] = molecular target: CHEK1 (human) (UniProt O14757); test: KINOMEscan competition binding; conditions: compound 10.0 µM
[39] = molecular target: CSF1R (human) (UniProt P07333); test: KINOMEscan competition binding; conditions: compound 10.0 µM
[40] = tested on: EIF2AK4 KD2 (human), Q9P2K8 [S808G]; test: KINOMEscan competition binding; conditions: compound 10.0 µM
[41] = molecular target: FGFR4 (human) (UniProt P22455); test: KINOMEscan competition binding; conditions: compound 10.0 µM
[42] = molecular target: FLT3 (human) (UniProt P36888); test: KINOMEscan competition binding; conditions: compound 10.0 µM
[43] = tested on: FLT3 (human), P36888 [K663Q]; test: KINOMEscan competition binding; conditions: compound 10.0 µM
[44] = molecular target: FRK (human) (UniProt P42685); test: KINOMEscan competition binding; conditions: compound 10.0 µM
[45] = molecular target: KIT (human) (UniProt P10721); test: KINOMEscan competition binding; conditions: compound 10.0 µM
[46] = tested on: KIT (human), P10721 [D816V]; test: KINOMEscan competition binding; conditions: compound 10.0 µM
[47] = tested on: KIT (human), P10721 [V559D/T670I]; test: KINOMEscan competition binding; conditions: compound 10.0 µM
[48] = tested on: KIT (human), P10721 [V559D/V654A]; test: KINOMEscan competition binding; conditions: compound 10.0 µM
[49] = tested on: KIT (human), P10721 [V559D]; test: KINOMEscan competition binding; conditions: compound 10.0 µM
[50] = molecular target: MYLK4 (human) (UniProt Q86YV6); test: KINOMEscan competition binding; conditions: compound 10.0 µM
[51] = molecular target: NEK2 (human) (UniProt P51955); test: KINOMEscan competition binding; conditions: compound 10.0 µM
[52] = molecular target: PDGFRA (human) (UniProt P16234); test: KINOMEscan competition binding; conditions: compound 10.0 µM
[53] = molecular target: PDGFRB (human) (UniProt P09619); test: KINOMEscan competition binding; conditions: compound 10.0 µM
[54] = molecular target: PIP5K1A (human) (UniProt Q99755); test: KINOMEscan competition binding; conditions: compound 10.0 µM
[55] = molecular target: PLK3 (human) (UniProt Q9H4B4); test: KINOMEscan competition binding; conditions: compound 10.0 µM
[56] = molecular target: PRKD1 (human) (UniProt Q15139); test: KINOMEscan competition binding; conditions: compound 10.0 µM
[57] = molecular target: PRKD3 (human) (UniProt O94806); test: KINOMEscan competition binding; conditions: compound 10.0 µM
[58] = molecular target: RIOK1 (human) (UniProt Q9BRS2); test: KINOMEscan competition binding; conditions: compound 10.0 µM
[59] = molecular target: RPS6KA1 KD2 (human) (UniProt Q15418); test: KINOMEscan competition binding; conditions: compound 10.0 µM
[60] = molecular target: RPS6KA6 KD2 (human) (UniProt Q9UK32); test: KINOMEscan competition binding; conditions: compound 10.0 µM
[61] = molecular target: SIK2 (human) (UniProt Q9H0K1); test: KINOMEscan competition binding; conditions: compound 10.0 µM
[62] = molecular target: SLK (human) (UniProt Q9H2G2); test: KINOMEscan competition binding; conditions: compound 10.0 µM
[63] = molecular target: STK33 (human) (UniProt Q9BYT3); test: KINOMEscan competition binding; conditions: compound 10.0 µM
[64] = molecular target: TNK1 (human) (UniProt Q13470); test: KINOMEscan competition binding; conditions: compound 10.0 µM
[65] = molecular target: TNK2 (human) (UniProt Q07912); test: KINOMEscan competition binding; conditions: compound 10.0 µM

GAK (human), sequence (O14976 whole entry, looked up): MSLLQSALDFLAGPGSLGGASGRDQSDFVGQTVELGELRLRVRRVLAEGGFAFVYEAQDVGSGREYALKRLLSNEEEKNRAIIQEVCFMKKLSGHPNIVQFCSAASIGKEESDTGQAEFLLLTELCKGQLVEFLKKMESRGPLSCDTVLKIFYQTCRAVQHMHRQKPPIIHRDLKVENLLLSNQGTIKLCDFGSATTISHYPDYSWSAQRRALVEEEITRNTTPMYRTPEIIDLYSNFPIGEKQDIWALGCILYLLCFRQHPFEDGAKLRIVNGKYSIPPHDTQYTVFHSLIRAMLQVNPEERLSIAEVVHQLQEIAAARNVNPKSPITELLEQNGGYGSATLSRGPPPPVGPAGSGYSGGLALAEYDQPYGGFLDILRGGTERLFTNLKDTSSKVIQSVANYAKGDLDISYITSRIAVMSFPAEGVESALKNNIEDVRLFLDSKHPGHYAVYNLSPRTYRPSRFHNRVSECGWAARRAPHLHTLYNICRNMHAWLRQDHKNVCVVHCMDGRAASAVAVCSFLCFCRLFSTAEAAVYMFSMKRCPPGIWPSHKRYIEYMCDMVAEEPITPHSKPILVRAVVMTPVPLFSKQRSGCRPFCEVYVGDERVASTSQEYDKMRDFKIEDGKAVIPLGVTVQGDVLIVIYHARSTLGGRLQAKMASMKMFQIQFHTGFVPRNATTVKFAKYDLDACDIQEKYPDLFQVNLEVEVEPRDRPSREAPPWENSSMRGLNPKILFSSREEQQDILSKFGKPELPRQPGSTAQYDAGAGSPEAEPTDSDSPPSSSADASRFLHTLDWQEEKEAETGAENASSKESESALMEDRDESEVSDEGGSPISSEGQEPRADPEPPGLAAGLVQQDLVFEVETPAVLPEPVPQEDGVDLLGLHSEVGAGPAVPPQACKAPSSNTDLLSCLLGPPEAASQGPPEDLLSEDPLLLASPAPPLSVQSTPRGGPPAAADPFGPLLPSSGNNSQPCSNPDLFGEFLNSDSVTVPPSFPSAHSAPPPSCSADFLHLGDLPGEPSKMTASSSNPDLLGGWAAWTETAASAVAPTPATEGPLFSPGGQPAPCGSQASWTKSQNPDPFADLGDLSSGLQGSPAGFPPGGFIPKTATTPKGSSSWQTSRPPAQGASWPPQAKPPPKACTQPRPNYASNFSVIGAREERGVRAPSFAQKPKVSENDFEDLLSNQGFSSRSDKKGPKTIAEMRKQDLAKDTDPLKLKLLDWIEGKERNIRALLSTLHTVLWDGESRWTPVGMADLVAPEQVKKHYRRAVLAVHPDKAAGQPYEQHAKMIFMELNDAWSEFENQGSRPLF
TYK2 JH2 pseudokinase (human), sequence (P29597 whole entry, looked up): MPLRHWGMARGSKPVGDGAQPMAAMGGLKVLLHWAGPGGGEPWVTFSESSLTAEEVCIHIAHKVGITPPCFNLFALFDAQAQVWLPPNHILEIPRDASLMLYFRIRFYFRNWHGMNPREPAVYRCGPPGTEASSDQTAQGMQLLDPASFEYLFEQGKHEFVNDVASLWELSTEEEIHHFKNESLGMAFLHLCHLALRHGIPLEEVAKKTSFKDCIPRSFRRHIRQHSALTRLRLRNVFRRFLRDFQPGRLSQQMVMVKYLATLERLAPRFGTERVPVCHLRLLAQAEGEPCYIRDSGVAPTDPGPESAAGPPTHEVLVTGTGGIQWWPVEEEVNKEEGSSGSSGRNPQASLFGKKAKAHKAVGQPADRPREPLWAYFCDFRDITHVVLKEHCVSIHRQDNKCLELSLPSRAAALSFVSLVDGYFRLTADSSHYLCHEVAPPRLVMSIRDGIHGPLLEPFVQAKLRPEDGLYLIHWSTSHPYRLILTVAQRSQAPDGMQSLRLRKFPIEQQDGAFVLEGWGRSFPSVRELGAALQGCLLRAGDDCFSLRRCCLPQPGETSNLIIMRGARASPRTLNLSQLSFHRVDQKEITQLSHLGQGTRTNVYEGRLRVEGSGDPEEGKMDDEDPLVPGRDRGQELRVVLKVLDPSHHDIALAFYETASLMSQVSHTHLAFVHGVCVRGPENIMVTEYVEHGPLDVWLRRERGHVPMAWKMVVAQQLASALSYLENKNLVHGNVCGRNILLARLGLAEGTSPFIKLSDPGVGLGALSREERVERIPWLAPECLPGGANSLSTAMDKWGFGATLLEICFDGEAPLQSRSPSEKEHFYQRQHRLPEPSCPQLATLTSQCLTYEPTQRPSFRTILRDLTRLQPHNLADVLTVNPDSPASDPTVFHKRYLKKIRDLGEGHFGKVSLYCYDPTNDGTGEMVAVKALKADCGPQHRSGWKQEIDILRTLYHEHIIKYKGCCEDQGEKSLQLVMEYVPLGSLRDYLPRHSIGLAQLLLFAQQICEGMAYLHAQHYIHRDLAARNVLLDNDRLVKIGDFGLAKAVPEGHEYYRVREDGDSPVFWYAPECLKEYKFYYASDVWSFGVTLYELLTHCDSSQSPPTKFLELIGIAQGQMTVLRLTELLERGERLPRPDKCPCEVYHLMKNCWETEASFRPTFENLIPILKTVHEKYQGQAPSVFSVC
PIM2 (human), sequence (Q9P1W9 whole entry, looked up): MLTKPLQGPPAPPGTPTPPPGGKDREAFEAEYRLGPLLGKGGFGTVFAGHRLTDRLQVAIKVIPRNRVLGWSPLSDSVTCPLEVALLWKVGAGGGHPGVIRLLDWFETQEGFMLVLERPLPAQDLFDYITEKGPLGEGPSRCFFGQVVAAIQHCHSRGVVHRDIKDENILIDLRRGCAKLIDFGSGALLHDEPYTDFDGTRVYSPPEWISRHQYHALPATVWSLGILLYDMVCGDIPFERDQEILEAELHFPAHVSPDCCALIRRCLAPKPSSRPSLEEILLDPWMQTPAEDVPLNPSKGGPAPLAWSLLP
RIOK3 (human), sequence (O14730 whole entry, looked up): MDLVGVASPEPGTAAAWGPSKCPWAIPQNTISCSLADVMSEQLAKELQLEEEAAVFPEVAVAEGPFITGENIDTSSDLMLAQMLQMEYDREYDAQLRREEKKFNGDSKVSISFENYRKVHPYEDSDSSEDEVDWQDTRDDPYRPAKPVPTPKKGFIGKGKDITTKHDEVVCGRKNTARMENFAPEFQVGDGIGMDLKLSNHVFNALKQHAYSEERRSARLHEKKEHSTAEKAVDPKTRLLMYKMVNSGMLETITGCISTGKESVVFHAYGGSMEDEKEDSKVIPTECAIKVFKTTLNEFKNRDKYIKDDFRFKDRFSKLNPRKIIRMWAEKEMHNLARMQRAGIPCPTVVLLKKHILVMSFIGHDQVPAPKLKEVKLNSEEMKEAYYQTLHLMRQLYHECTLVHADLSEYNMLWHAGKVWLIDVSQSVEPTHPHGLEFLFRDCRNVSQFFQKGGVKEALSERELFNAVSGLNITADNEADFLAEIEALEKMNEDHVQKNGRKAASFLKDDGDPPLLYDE
PIM1 (human), sequence (P11309 whole entry, looked up): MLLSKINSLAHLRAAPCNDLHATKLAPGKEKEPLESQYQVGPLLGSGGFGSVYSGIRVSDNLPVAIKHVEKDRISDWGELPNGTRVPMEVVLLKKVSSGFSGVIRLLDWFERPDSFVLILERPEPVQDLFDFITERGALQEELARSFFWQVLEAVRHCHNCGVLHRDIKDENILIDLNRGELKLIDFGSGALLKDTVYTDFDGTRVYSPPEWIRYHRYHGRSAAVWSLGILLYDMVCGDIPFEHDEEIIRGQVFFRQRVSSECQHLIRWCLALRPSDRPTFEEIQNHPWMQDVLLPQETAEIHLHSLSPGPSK
FLT4 (human), sequence (P35916 whole entry, looked up): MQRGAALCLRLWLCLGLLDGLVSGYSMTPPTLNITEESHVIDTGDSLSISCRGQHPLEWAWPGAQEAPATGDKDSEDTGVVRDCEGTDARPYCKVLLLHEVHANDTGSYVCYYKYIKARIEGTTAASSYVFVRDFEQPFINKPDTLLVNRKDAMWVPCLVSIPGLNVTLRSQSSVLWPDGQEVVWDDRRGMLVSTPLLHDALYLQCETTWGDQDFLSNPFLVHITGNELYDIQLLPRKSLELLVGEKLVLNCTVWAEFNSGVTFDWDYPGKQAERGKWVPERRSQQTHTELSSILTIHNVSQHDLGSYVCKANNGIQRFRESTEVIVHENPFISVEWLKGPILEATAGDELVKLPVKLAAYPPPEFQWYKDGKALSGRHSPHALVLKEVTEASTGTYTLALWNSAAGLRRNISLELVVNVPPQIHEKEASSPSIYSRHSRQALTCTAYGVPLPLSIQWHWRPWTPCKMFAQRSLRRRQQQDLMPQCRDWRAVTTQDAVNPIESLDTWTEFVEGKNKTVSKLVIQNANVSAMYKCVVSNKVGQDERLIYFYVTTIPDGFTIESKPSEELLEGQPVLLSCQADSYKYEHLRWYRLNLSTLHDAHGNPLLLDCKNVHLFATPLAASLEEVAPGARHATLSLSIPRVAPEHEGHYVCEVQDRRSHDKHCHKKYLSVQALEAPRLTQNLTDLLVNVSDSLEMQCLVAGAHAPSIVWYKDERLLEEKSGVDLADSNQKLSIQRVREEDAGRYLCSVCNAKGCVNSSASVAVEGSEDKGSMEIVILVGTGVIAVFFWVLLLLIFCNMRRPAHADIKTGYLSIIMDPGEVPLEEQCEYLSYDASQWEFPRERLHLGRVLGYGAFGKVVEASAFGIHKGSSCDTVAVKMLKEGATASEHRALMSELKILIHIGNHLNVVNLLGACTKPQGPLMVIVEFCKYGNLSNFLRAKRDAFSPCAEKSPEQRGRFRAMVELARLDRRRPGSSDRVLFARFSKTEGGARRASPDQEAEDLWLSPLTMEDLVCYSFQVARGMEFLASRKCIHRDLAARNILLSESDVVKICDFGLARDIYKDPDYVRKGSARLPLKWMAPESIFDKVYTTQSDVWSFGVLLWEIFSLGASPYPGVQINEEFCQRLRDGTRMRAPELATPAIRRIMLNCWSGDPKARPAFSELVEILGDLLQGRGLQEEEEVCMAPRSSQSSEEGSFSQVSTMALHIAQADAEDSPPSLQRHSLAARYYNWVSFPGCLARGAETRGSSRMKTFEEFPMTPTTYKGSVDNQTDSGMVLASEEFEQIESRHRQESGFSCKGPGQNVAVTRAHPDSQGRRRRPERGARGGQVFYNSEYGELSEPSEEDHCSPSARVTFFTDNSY

kinase still bound, per cent of control [1]: 19%
kinase still bound, per cent of control [2]: 27%
kinase still bound, per cent of control [3]: 29%
kinase still bound, per cent of control [4]: 1.4%
kinase still bound, per cent of control [5]: 8%
kinase still bound, per cent of control [6]: 12%
kinase still bound, per cent of control [7]: 17%
kinase still bound, per cent of control [8]: 22%
kinase still bound, per cent of control [9]: 34%
kinase still bound, per cent of control [10]: 25%
kinase still bound, per cent of control [11]: 28%
kinase still bound, per cent of control [12]: 3.7%
kinase still bound, per cent of control [13]: 30%
kinase still bound, per cent of control [14]: 33%
kinase still bound, per cent of control [15]: 30%
kinase still bound, per cent of control [16]: 9.8%
kinase still bound, per cent of control [17]: 20%
kinase still bound, per cent of control [18]: 26%
kinase still bound, per cent of control [19]: 27%
kinase still bound, per cent of control [20]: 3%
kinase still bound, per cent of control [21]: 0.8%
kinase still bound, per cent of control [22]: 2.6%
kinase still bound, per cent of control [23]: 1.6%
kinase still bound, per cent of control [24]: 30%
kinase still bound, per cent of control [25]: 32%
kinase still bound, per cent of control [26]: 33%
kinase still bound, per cent of control [27]: 1.8%
kinase still bound, per cent of control [28]: 3.6%
kinase still bound, per cent of control [29]: 34%
kinase still bound, per cent of control [30]: 14%
kinase still bound, per cent of control [31]: 17%
IC50 [32]: 1620 nM
IC50 [33]: 1100 nM
Compound: O=C1NC(=S)S/C1=C\c1ccc(-c2cccc3ccccc23)o1

kinase still bound, per cent of control [34]: 13%
kinase still bound, per cent of control [35]: 19%
kinase still bound, per cent of control [36]: 23%
kinase still bound, per cent of control [37]: 29%
kinase still bound, per cent of control [38]: 6%
kinase still bound, per cent of control [39]: 0.8%
kinase still bound, per cent of control [40]: 21%
kinase still bound, per cent of control [41]: 17%
kinase still bound, per cent of control [42]: 11%
kinase still bound, per cent of control [9]: 27%
kinase still bound, per cent of control [43]: 19%
kinase still bound, per cent of control [10]: 33%
kinase still bound, per cent of control [44]: 8.2%
kinase still bound, per cent of control [11]: 0.85%
kinase still bound, per cent of control [45]: 0%
kinase still bound, per cent of control [46]: 12%
kinase still bound, per cent of control [47]: 33%
kinase still bound, per cent of control [48]: 8.4%
kinase still bound, per cent of control [49]: 0%
kinase still bound, per cent of control [50]: 7.8%
kinase still bound, per cent of control [51]: 24%
kinase still bound, per cent of control [52]: 1.8%
kinase still bound, per cent of control [53]: 0.05%
kinase still bound, per cent of control [54]: 11%
kinase still bound, per cent of control [55]: 9.5%
kinase still bound, per cent of control [56]: 29%
kinase still bound, per cent of control [57]: 30%
kinase still bound, per cent of control [58]: 21%
kinase still bound, per cent of control [24]: 31%
kinase still bound, per cent of control [59]: 14%
kinase still bound, per cent of control [60]: 2%
kinase still bound, per cent of control [61]: 18%
kinase still bound, per cent of control [62]: 31%
kinase still bound, per cent of control [63]: 12%
kinase still bound, per cent of control [64]: 25%
kinase still bound, per cent of control [65]: 8.6%
kinase still bound, per cent of control [31]: 27%
Compound: COc1cc(N2CCN(C)CC2)ccc1Nc1ncc2c(n1)N1CCC[C@H]1CC(=O)N2
